US10765114B2, “4-amino-6-(pyridyl and 2-substitutedphenyl)-picolinates and 6-amino-2-(pyridyl and 2-substitutedphenyl)-pyrimidine-4-carboxylates and their use as herbicides” (Dow AgroSciences LLC, priority 2013, dated 2020)

What was measured:
Experiment in all cases: Post-Emergent Test III (Wheat and Barley)
PAPRH (common poppy) = type: in vivo, Papaver rhoeas; settings: for Visual Growth Reduction (%) 21 Days After Application, PAPRH: postemergence; for GR50, PAPRH: effective dose for growth reduction of 50 percent; for GR50, PAPRH / GR80, PAPRH / GR90, PAPRH: probit analysis; for GR80, PAPRH: effective dose for growth reduction of 80 percent; for GR90, PAPRH: effective dose for growth reduction of 90 percent
Method: (§1) Seeds of the desired test plant species were planted in Sun Gro MetroMix® 306 planting mixture, which typically has a pH of 6.0 to 6.8 and an organic matter content of about 30 percent, in plastic pots with a surface area of 103.2 square centimeters (cm^2). When required to ensure good germination and healthy plants, a fungicide treatment and/or other chemical or physical treatment was applied. The plants were grown for 7-36 days in a greenhouse with an approximate 14 h photoperiod which was maintained at about 18° C. during the day and 17° C. during the night. Nutrients and water were added on a regular basis and supplemental lighting was provided with overhead metal halide 1000-Watt lamps as necessary. The plants were employed for testing when they reached the second or third true leaf stage.
(§2) A weighed amount, determined by the highest rate to be tested, of each test compound was placed in a 25 mL glass vial and was dissolved in 4 mL of a 97:3 v/v mixture of acetone and DMSO to obtain concentrated stock solutions. […] The concentrated stock solutions obtained were diluted with 20 mL of an aqueous mixture containing acetone, water, isopropyl alcohol, DMSO, Agri-Dex crop oil concentrate, and X-77 surfactant in a 48:39:10:1.5:1.5:0.02 v/v ratio to obtain spray solutions containing the highest application rates. Additional application rates were obtained by serial dilution of 12 mL of the high rate solution into a solution containing 2 mL of 97:3 v/v mixture of acetone and DMSO and 10 mL of an aqueous mixture containing acetone, water, isopropyl alcohol, DMSO, Agri-Dex crop oil concentrate, and X-77 surfactant in a 48:39:10:1.5:1.5:0.02 v/v ratio to obtain ½×, ¼×, ⅛× and 1/16× rates of the high rate. Compound requirements are based upon a 12 mL application volume at a rate of 187 liters per hectare (L/ha). Formulated compounds were applied to the plant material with an overhead Mandel track sprayer equipped with 8002E nozzles calibrated to deliver 187 L/ha over an application area of 0.503 square meters at a spray height of 18 inches (43 cm) above the average plant canopy height. Control plants were sprayed in the same manner with the solvent blank.
(§3) The treated plants and control plants were placed in a greenhouse as described above and watered by subirrigation to prevent wash-off of the test compounds. After 21 dAYS, the condition of the test plants as compared with that of the untreated plants was determined visually and scored on a scale of 0 to 100 percent where 0 corresponds to no injury and 100 corresponds to complete kill and presented as indicated in Table A.
(§4) By applying the well-accepted probit analysis as described by J. Berkson in Journal of the American Statistical Society, 48, 565 (1953) and by D. Finney in “Probit Analysis” Cambridge University Press (1952), herbicidal injury of a specific compound at various rates can be used to calculate GR10, GR20, GR50, GR80 and GR90 values, which are defined as growth reduction factors that correspond to the effective dose of herbicide required to provide plant growth reduction (GR) of 10 percent, 20 percent, 50 percent, 80 percent and 90 percent, respectively. Probit analysis was applied to data collected from multiple dose rates of individual compounds utilizing the procedures explained in the following examples. The analysis of those dose rates is captured in the following tables.

[1] = test system: PHAMI (littleseed canarygrass); type: in vivo, Phalaris minor; settings: for Visual Growth Reduction (%) 21 Days After Application, PHAMI: postemergence; for GR50, PHAMI: effective dose for growth reduction of 50 percent; for GR50, PHAMI / GR80, PHAMI / GR90, PHAMI: probit analysis; for GR80, PHAMI: effective dose for growth reduction of 80 percent; for GR90, PHAMI: effective dose for growth reduction of 90 percent
Method: as §1, §2, §3, §4

SASKR (Russian thistle) = type: in vivo, Salsola tragus; settings: for Visual Growth Reduction (%) 21 Days After Application, SASKR: postemergence; for GR50, SASKR: effective dose for growth reduction of 50 percent; for GR50, SASKR / GR80, SASKR / GR90, SASKR: probit analysis; for GR80, SASKR: effective dose for growth reduction of 80 percent; for GR90, SASKR: effective dose for growth reduction of 90 percent
Method: as §1, §2, §3, §4

SINAR (wild mustard) = type: in vivo, Sinapis arvensis; settings: for Visual Growth Reduction (%) 21 Days After Application, SINAR: postemergence; for GR50, SINAR: effective dose for growth reduction of 50 percent; for GR50, SINAR / GR80, SINAR / GR90, SINAR: probit analysis; for GR80, SINAR: effective dose for growth reduction of 80 percent; for GR90, SINAR: effective dose for growth reduction of 90 percent
Method: as §1, §2, §3, §4

[2] = test system: VERPE (Persian speedwell); type: in vivo, Veronica persica; settings: for Visual Growth Reduction (%) 21 Days After Application, VERPE: postemergence; for GR50, VERPE: effective dose for growth reduction of 50 percent; for GR50, VERPE / GR80, VERPE / GR90, VERPE: probit analysis; for GR80, VERPE: effective dose for growth reduction of 80 percent; for GR90, VERPE: effective dose for growth reduction of 90 percent
Method: as §1, §2, §3, §4

| SMILES | Visual Growth Reduction (%) 21 Days After Application, PAPRH (PAPRH (common poppy); 35 g ai/ha) | Visual Growth Reduction (%) 21 Days After Application, PAPRH (PAPRH (common poppy); 70 g ai/ha) | Visual Growth Reduction (%) 21 Days After Application, PAPRH (PAPRH (common poppy); 140 g ai/ha) | GR50, PAPRH (PAPRH (common poppy)) [g ai/ha] | GR80, PAPRH (PAPRH (common poppy)) [g ai/ha] | GR90, PAPRH (PAPRH (common poppy)) [g ai/ha] | Visual Growth Reduction (%) 21 Days After Application, PHAMI ([1]; 35 g ai/ha) | Visual Growth Reduction (%) 21 Days After Application, PHAMI ([1]; 70 g ai/ha) | Visual Growth Reduction (%) 21 Days After Application, PHAMI ([1]; 140 g ai/ha) | GR50, PHAMI [1] [g ai/ha] | GR80, PHAMI [1] [g ai/ha] | GR90, PHAMI [1] [g ai/ha] | Visual Growth Reduction (%) 21 Days After Application, SASKR (SASKR (Russian thistle); 35 g ai/ha) | Visual Growth Reduction (%) 21 Days After Application, SASKR (SASKR (Russian thistle); 70 g ai/ha) | Visual Growth Reduction (%) 21 Days After Application, SASKR (SASKR (Russian thistle); 140 g ai/ha) | GR50, SASKR (SASKR (Russian thistle)) [g ai/ha] | GR80, SASKR (SASKR (Russian thistle)) [g ai/ha] | GR90, SASKR (SASKR (Russian thistle)) [g ai/ha] | Visual Growth Reduction (%) 21 Days After Application, SINAR (SINAR (wild mustard); 35 g ai/ha) | Visual Growth Reduction (%) 21 Days After Application, SINAR (SINAR (wild mustard); 70 g ai/ha) | other results |
| --- | --- | --- | --- | --- | --- | --- | --- | --- | --- | --- | --- | --- | --- | --- | --- | --- | --- | --- | --- | --- | --- |
| Nc1c(F)c(-c2ccc(C(F)(F)F)nc2)nc(C(=O)O)c1Cl [Compound 46, 4-amino-5-chloro-3-fluoro-6′-(trifluoromethyl)-[2,3′-bipyridine]-6-carboxylic acid] | A (95-100) | A (95-100) | A (95-100) | 2 | 8 | 16 | B (85-94) | B (85-94) | B (85-94) | 15 | 24 | 31 | E (45-59) | D (60-74) | D (60-74) | 23 | >140 | >140 | B (85-94) | B (85-94) | Visual Growth Reduction (%) 21 Days After Application, SINAR (SINAR (wild mustard); 140 g ai/ha): A (95-100); GR50, SINAR (SINAR (wild mustard)): 2 g ai/ha; GR80, SINAR (SINAR (wild mustard)): 19 g ai/ha; GR90, SINAR (SINAR (wild mustard)): 62 g ai/ha; Visual Growth Reduction (%) 21 Days After Application, VERPE ([2]; 35 g ai/ha): A (95-100); Visual Growth Reduction (%) 21 Days After Application, VERPE ([2]; 70 g ai/ha): A (95-100); Visual Growth Reduction (%) 21 Days After Application, VERPE ([2]; 140 g ai/ha): A (95-100); GR50, VERPE [2]: 1 g ai/ha; GR80, VERPE [2]: 2 g ai/ha; GR90, VERPE [2]: 8 g ai/ha |
| COC(=O)c1nc(-c2ccc(Cl)c(F)c2C)cc(N)c1Cl [Compound 73] | D (60-74) | D (60-74) | A (95-100) | 15 | 48 | 90 | D (60-74) | D (60-74) | C (75-84) | 40 | 107 | >140 | C (75-84) | C (75-84) | C (75-84) | 1 | 84 | >140 | A (95-100) | A (95-100) | Visual Growth Reduction (%) 21 Days After Application, SINAR (SINAR (wild mustard); 140 g ai/ha): A (95-100); GR50, SINAR (SINAR (wild mustard)): 1 g ai/ha; GR80, SINAR (SINAR (wild mustard)): 1 g ai/ha; GR90, SINAR (SINAR (wild mustard)): 3 g ai/ha; Visual Growth Reduction (%) 21 Days After Application, VERPE ([2]; 35 g ai/ha): G (0-29); Visual Growth Reduction (%) 21 Days After Application, VERPE ([2]; 70 g ai/ha): G (0-29); Visual Growth Reduction (%) 21 Days After Application, VERPE ([2]; 140 g ai/ha): F (30-44); GR50, VERPE [2]: >140 g ai/ha; GR80, VERPE [2]: >140 g ai/ha; GR90, VERPE [2]: >140 g ai/ha |
